For data set [1], the target named is E. coli RNA polymerase σ^70 holoenzyme (Escherichia coli, UniProt P0A8T7+P0A8V2). Description: Inhibition of Escherichia coli RNA polymerase (fluorescence-detected). The data set is classed as biochemical. Conditions: read-out: IC50 E. coli RNAP. The procedure:
(§1) Fluorescence-detected RNA polymerase assays with E. coli RNA polymerase were performed by a modification of the procedure of Kuhlman et al., 2004 [Kuhlman, P., Duff, H. & Galant, A. (2004) A fluorescence-based assay for multisubunit DNA-dependent RNA polymerases. Anal. Biochem. 324, 183-190]. Reaction mixtures contained (20 μl): 0-100 nM test compound, 75 nM E. coli RNA polymerase σ^70 holoenzyme, 20 nM 384 bp DNA fragment containing the bacteriophage T4 N25 promoter, 100 μM ATP, 100 μM GTP, 100 μM UTP, 100 μM CTP, 50 mM Tris-HCl, pH 8.0, 100 mM KCl, 10 mM MgCl2, 1 mM DTT, 10 μg/ml bovine serum albumin, and 5.5% glycerol. Reaction components other than DNA and NTPs were pre-incubated for 10 min at 37° C. Reactions were carried out by addition of DNA and incubation for 5 min at 37° C., followed by addition of NTPs and incubation for 60 min at 37° C. DNA was removed by addition of 1 μl 5 mM CaCl2 and 2 U DNaseI (Ambion, Inc.), followed by incubation for 90 min at 37° C. RNA was quantified by addition of 100 μl RiboGreen RNA Quantitation Reagent (Invitrogen, Inc.; 1:500 dilution in Tris-HCl, pH 8.0, 1 mM EDTA), followed by incubation for 10 min at 25° C., followed by measurement of fluorescence intensity [excitation wavelength=485 nm and emission wavelength=535 nm; QuantaMaster QM1 spectrofluorometer (PTI, Inc.)].

Data set [2] deals with M. tuberculosis RNA polymerase (Mycobacterium tuberculosis, UniProt P9WGY7+P9WGY9). Description: Inhibition of Mycobacterium tuberculosis RNA polymerase (fluorescence-detected). Format: biochemical. On the procedure:
as §1
Fluorescence-detected RNA polymerase assays with M. tuberculosis RNA polymerase were performed as in Example 17.1, using reaction mixtures containing (20 μl): 0-100 nM test compound, 75 nM M. tuberculosis RNA polymerase core enzyme, 300 nM M. tuberculosis σ^A, 20 nM 384 bp DNA fragment containing the bacteriophage […] N25 promoter, 100 μM ATP, 100 μM GTP, 100 μM UTP, 100 μM CTP, 40 mM Tris-HCl, pH 8.0, 80 mM NaCl, 5 mM MgCl2, 2.5 mM DTT, and 12.7% glycerol.

A further data set has as its target S. aureus RNA polymerase (Staphylococcus aureus, UniProt P47768+Q2G0N5). Nature of the data set: Inhibition of Staphylococcus aureus RNA polymerase (fluorescence-detected). Format: biochemical.
Data set [3] has as its system Acinetobacter baumannii ATCC 19606. Nature of the data set: Inhibition of bacterial growth in culture (MIC, spiral gradient endpoint). The data set is classed as cell-based. Conditions: for MIC: Acinetobacter baumannii, ATCC19606, Mueller-Hinton II agar, 16 h at 37° C. The text has this:
(§2) Minimum inhibitory concentrations (MICs) for Staphylococcus aureus ATCC 12600, Enterococcus faecalis ATCC 19433, Acinetobacter baumannii ATCC 19606, and Escherichia coli D21f2tolC were quantified using spiral gradient endpoint assays, essentially as described [Wallace, A. and Corkill, J. (1989) Application of the spiral plating method to study antimicrobial action. J. Microbiol. Meths. […] Int. J. Exp. Clin. Chemother. 3, 31-38; Schalkowsky S. (1994) Measures of susceptibility from a spiral gradient of drug concentrations. Adv. Exp. Med. Biol. 349, 107-120]. Assays employed exponential-gradient plates containing 150 mm×4 mm Mueller-Hinton II cation-adjusted agar and 0.4-100 μg/ml of test compound. Plates were prepared using an Autoplate 4000 spiral plater (Spiral Biotech, Inc.). Saturated overnight cultures were swabbed radially onto plates, and plates were incubated for 16 h at 37° C. For each culture, the streak length was measured using a clear plastic template (Spiral Biotech, Inc.), the test-compound concentration at the streak endpoint was calculated using the program SGE (Spiral Biotech, Inc.), and the MIC was defined as the calculated test-compound concentration at the streak endpoint.

The subject of data set [4] is Enterococcus faecalis ATCC 19433. Described as above. Format: cell-based. To be noted: for MIC: Enterococcus faecalis, ATCC19433, Mueller-Hinton II agar, 16 h at 37° C., read-out: MIC E. faecalis 19433.
Description: as §2

Data set [5] has as its system Escherichia coli D21f2tolC. The description is as above. The data set is classed as cell-based. Conditions: 16 h, read-out: MIC E. coli D21f2tolC.
Description: as §2

Data set [6] deals with Staphylococcus aureus ATCC 12600. The description is as above. Format: cell-based. Conditions: for MIC: Staphylococcus aureus, ATCC12600, Mueller-Hinton II agar, 16 h at 37° C., read-out: MIC S. aureus 12600; for inhibition of Staphylococcus aureus compared with Myx B and 7-desmethyl-Myx B: summary of Table 3.
Description: as §2

For the next data set, the system named is Staphylococcus aureus. Nature of the data set: Antibacterial efficacy in mouse model of Staphylococcus aureus systemic infection (peritonitis model). Format: in vivo, Swiss Webster mice. Conditions: for effect on survival in a mouse model of Staphylococcus aureus infection (in words): summary of Tables 4a-4c. On the procedure:
(§3) Female Swiss Webster mice were experimentally infected by intraperitoneal administration of 5×10^7 colony forming units of Staphylococcus aureus in 10% hog gastric mucin. Test compounds (2-3 mg/ml in vehicle [9-19% dimethyacetamide/8-16% Cremophor EL in water, v/v]), positive controls (2 mg/ml vancomycin in vehicle), and negative controls (vehicle only and saline only), were administered by intravenous injection into a tail vein 1 h and 5 h post-infection (200 μl per injection). Survival was monitored for 12 h post-infection, or for 24, 48, and 72 h post-infection. At the end of the monitoring period, surviving animals were euthanized.

Data set [7] can be described thus: Tolerability upon intravenous injection (peritonitis model study). The data set is classed as in vivo, Swiss Webster mice. To be noted: daily total doses of at least 30 mg/kg; vehicles containing 9% to 19% dimethylacetamide and 8% to 16% Cremophor EL. The procedure:
as §3

Setting [8] is: Table 4c, total dose 50 mg/kg iv, vehicle 9% dimethylacetamide/8% Cremophor EL/83% water.
The mark [9] stands for this setting: read-out: IC50 M. tuberculosis RNAP.
Setting [10] is: Table 4a, total dose 30 mg/kg iv, 1 h and 5 h post-infection, vehicle 19% dimethylacetamide/8% Cremophor EL/73% water.

Structures are written as SMILES. pIC50: −log10 of the molar value. Values after ≈ are worked out from the molar mass of the structure shown. Read-outs that look alike come from different tables or passages of the source.

Chain of E. coli RNA polymerase σ^70 holoenzyme (P0A8V2 whole entry, the tested form may be a part): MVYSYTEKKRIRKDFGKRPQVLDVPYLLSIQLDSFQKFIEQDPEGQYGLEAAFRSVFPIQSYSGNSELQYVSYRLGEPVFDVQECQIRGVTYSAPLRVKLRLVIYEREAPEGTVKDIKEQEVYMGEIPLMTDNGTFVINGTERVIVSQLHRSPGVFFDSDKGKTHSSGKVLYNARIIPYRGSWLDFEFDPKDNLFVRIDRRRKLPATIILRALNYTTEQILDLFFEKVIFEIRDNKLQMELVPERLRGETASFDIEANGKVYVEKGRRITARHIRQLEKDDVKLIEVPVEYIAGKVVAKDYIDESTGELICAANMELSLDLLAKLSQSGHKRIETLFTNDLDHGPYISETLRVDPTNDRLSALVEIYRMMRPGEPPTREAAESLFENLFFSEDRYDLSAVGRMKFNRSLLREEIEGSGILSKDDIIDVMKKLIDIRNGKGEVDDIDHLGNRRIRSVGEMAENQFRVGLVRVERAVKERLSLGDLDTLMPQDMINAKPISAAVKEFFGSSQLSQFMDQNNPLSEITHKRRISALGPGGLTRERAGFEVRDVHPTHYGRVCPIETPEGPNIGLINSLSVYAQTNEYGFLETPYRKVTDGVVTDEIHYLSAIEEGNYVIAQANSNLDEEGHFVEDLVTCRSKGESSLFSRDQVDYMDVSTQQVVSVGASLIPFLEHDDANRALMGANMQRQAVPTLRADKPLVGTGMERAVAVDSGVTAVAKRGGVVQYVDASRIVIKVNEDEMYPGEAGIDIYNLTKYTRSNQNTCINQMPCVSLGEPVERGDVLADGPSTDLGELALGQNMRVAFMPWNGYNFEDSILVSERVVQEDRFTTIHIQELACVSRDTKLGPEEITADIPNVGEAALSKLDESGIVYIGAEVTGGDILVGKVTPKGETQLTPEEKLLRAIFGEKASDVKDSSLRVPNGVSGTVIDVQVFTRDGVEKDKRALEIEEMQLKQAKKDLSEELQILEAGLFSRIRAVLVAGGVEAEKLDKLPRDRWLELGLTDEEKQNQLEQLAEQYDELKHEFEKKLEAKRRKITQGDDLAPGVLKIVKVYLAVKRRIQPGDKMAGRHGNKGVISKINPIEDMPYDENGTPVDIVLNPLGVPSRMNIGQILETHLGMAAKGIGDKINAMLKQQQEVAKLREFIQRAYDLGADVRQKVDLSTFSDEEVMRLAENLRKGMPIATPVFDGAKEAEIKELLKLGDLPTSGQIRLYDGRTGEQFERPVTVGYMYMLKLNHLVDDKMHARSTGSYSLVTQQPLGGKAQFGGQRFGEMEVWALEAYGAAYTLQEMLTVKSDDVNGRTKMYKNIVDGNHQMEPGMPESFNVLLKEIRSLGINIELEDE
Chain of E. coli RNA polymerase σ^70 holoenzyme (P0A8T7 whole entry, the tested form may be a part): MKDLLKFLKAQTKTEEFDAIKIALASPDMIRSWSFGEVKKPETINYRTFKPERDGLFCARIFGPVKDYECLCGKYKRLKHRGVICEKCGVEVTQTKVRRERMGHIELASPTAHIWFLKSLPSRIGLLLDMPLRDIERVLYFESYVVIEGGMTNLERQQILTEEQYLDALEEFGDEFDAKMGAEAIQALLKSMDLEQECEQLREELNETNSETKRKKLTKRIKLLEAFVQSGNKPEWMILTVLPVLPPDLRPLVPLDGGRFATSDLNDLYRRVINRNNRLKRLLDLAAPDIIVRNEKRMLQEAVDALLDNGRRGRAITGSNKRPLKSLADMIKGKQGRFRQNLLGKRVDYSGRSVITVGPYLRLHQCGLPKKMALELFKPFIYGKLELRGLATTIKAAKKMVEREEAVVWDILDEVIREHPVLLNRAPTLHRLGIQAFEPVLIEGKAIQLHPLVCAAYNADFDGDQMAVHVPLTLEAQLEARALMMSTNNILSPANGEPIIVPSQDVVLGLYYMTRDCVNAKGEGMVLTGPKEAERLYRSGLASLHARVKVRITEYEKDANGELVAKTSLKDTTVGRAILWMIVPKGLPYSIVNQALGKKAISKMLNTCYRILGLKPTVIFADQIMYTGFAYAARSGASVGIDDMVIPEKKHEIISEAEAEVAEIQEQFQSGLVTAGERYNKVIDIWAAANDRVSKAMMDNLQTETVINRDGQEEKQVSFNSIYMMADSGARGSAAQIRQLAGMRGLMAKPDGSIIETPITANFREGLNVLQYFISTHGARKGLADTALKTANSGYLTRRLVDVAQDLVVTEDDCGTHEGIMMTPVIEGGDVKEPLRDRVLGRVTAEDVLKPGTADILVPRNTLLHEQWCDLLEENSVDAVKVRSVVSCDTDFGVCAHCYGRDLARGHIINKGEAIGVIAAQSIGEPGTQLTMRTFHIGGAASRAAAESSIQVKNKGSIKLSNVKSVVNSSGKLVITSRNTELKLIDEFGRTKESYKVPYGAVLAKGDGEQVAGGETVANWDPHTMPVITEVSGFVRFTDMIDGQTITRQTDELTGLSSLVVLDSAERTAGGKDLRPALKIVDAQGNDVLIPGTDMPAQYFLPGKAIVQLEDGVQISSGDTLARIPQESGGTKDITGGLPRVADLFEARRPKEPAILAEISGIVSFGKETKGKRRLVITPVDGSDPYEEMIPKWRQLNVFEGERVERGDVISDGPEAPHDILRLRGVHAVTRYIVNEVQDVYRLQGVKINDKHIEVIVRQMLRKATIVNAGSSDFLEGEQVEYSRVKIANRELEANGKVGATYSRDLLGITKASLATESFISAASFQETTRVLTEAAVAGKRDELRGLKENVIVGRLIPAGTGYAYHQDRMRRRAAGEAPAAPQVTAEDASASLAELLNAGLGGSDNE
Chain of E. coli RNA polymerase σ^70 holoenzyme (P0A7Z4 whole entry partner, the tested form may be a part): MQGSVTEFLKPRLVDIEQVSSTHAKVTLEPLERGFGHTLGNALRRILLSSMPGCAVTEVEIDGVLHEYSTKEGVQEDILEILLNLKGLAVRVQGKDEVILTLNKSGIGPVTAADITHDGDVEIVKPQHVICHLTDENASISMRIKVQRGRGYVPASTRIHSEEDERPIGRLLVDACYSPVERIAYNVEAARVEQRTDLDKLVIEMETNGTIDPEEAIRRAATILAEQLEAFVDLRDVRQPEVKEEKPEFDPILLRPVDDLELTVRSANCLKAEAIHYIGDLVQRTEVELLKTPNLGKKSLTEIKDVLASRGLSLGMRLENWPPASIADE
Chain of E. coli RNA polymerase σ^70 holoenzyme (P0A800 whole entry partner, the tested form may be a part): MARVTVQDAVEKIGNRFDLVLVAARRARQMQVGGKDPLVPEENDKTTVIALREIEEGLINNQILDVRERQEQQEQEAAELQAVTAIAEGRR
Chain of E. coli RNA polymerase σ^70 holoenzyme (P00579 whole entry partner, the tested form may be a part): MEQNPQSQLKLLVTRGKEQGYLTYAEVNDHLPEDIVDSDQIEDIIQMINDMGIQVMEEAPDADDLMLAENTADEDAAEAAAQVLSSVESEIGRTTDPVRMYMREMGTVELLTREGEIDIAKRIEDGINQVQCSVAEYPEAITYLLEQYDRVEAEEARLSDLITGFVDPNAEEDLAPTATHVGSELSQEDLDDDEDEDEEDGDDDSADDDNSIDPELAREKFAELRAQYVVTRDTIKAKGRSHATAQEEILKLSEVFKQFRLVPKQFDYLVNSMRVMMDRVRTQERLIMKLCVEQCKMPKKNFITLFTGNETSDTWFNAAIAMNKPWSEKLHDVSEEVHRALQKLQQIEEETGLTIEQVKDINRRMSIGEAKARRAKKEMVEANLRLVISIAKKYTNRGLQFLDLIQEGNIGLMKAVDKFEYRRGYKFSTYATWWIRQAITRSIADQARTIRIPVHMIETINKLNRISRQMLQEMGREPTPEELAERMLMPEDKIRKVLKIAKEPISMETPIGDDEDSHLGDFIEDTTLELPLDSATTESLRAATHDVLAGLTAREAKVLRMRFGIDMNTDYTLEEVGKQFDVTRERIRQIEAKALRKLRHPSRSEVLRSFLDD

Regarding `CCCC/C(C)=C/C=C(\C)C(=O)c1c(O)cc(C(C)CC/C=C/NC(=O)OC)oc1=O` (stereo not shown) [Myx B, Methyl ((E)-5-(3-((2E,4E)-2,5-dimethylnona-2,4-dienoyl)-4-hydroxy-2-oxo-2H-pyran-6-yl)hex-1-en-1-yl)carbamate, reference compound], the pIC50 was 7.89 in data set [1], 6.89 in data set [2] and 7.18 on S. aureus RNA polymerase. The MIC was > 40 mg/L in data set [3], 13 mg/L (≈ 30.1 µM) in data set [4], 0.098 mg/L (≈ 0.227 µM) in data set [5] and 0.78 mg/L (≈ 1.81 µM) in data set [6]. In addition, the “inhibition of Acinetobacter baumannii (in words)” value in data set [3] (summary of Table 3) was “not detectably inhibited”. The 12-hour survival with Staphylococcus aureus (Table 4b, total dose 50 mg/kg iv, vehicle 19% dimethylacetamide/16% Cremophor EL/73% water) was found to be 50%. This compound also had a 24-hour survival in the data set on Staphylococcus aureus (setting [8]) of 75%. Further, in the data set on Staphylococcus aureus (setting [8]), the 48-hour survival was found to be 50%. This compound also displayed a 72-hour survival in the data set with Staphylococcus aureus (setting [8]) of 50%. Further, the “effect on survival in a mouse model of Staphylococcus aureus infection (in words)” value (“effect on survival in a mouse model” for short) with Staphylococcus aureus was “increase survival”. In [7], the “acute toxicity upon intravenous injection” value was “tolerated without acute toxicity”.

As to `CCCCC/C(C)=C/C=C(\C)C(=O)c1c(O)cc(CCC/C=C/NC(=O)OC)oc1=O` [compound 5, Methyl ((E)-5-(3-((2E,4E)-2,5-dimethyldeca-2,4-dienoyl)-4-hydroxy-2-oxo-2H-pyran-6-yl)pent-1-en-1-yl)carbamate], the pIC50 in data set [1] was 8.41; in [2] (setting [9]), 7.49; on S. aureus RNA polymerase (read-out: IC50 S. aureus RNAP), 7.82. Further, the MIC in data set [3] came to 19 mg/L (≈ 44 µM); in data set [4], 12 mg/L (≈ 27.8 µM); in [5] it was 0.076 mg/L (≈ 0.176 µM); in data set [6], 0.44 mg/L (≈ 1.02 µM). In addition, the “inhibition of Enterococcus faecalis compared with Myx B and 7-desmethyl-Myx B” value in data set [4] (summary of Table 3) was “more potently than Myx B and 7-desmethyl-Myx B”. The “inhibition of Staphylococcus aureus compared with Myx B and 7-desmethyl-Myx B” value in data set [6] was “more potently than Myx B and 7-desmethyl-Myx B”. For the same compound, the 12-hour survival in the data set with Staphylococcus aureus (setting [10]) is 100%. In addition, the “effect on survival in a mouse model” value in the data set on Staphylococcus aureus is listed as “increase survival”. The “acute toxicity upon intravenous injection” value in data set [7] is listed as “tolerated without acute toxicity”.

As to `CCCCC/C(C)=C/C=C(\C)C(=O)c1c(O)cc(C(C)CC/C=C/NC(=O)OC)oc1=O` (stereo not shown) [compound 8, Methyl ((E)-5-(3-((2E,4E)-2,5-dimethyldeca-2,4-dienoyl)-4-hydroxy-2-oxo-2H-pyran-6-yl)hex-1-en-1-yl)carbamate], the pIC50 is 8.40 in data set [1], 7.72 in [2] (setting [9]) and 8.04 at S. aureus RNA polymerase (read-out: IC50 S. aureus RNAP). Besides, the MIC in [6] came to 0.5 mg/L (≈ 1.12 µM). In addition, in data set [6], the “inhibition of Staphylococcus aureus compared with Myx B and 7-desmethyl-Myx B” value is “more potently than Myx B and 7-desmethyl-Myx B”. For the same compound, the 12-hour survival with Staphylococcus aureus (setting [10]) is given as 75%. Moreover, in the data set with Staphylococcus aureus, the “effect on survival in a mouse model” value is recorded as “increase survival”. Also, the “acute toxicity upon intravenous injection” value in data set [7] is reported as “tolerated without acute toxicity”.
